Reference: patent US10793550B2, “4-piperidin-n-(pyrimidin-4-yl)chroman-7-sulfonamide derivatives as sodium channel inhibitors” (GENENTECH, INC., priority 2017, dated 2020)
pIC50: −log10 of the molar value.

Assays:
hNav1.7 = biological target: T1, hNav1.7 (Homo sapiens, UniProt Q15858); assay: Tritiated compound competitive binding to membranes from cells expressing hNav1.7 and the β1 subunit; conditions: competition with 100 pM [3H]compound, 18 h, room temperature; "this model or another representative model of inhibition"; read-out: Nav1.7 inhib. in vitro
T1 construct: expressed in transfected cells
T1 sequence (Q15858 whole entry): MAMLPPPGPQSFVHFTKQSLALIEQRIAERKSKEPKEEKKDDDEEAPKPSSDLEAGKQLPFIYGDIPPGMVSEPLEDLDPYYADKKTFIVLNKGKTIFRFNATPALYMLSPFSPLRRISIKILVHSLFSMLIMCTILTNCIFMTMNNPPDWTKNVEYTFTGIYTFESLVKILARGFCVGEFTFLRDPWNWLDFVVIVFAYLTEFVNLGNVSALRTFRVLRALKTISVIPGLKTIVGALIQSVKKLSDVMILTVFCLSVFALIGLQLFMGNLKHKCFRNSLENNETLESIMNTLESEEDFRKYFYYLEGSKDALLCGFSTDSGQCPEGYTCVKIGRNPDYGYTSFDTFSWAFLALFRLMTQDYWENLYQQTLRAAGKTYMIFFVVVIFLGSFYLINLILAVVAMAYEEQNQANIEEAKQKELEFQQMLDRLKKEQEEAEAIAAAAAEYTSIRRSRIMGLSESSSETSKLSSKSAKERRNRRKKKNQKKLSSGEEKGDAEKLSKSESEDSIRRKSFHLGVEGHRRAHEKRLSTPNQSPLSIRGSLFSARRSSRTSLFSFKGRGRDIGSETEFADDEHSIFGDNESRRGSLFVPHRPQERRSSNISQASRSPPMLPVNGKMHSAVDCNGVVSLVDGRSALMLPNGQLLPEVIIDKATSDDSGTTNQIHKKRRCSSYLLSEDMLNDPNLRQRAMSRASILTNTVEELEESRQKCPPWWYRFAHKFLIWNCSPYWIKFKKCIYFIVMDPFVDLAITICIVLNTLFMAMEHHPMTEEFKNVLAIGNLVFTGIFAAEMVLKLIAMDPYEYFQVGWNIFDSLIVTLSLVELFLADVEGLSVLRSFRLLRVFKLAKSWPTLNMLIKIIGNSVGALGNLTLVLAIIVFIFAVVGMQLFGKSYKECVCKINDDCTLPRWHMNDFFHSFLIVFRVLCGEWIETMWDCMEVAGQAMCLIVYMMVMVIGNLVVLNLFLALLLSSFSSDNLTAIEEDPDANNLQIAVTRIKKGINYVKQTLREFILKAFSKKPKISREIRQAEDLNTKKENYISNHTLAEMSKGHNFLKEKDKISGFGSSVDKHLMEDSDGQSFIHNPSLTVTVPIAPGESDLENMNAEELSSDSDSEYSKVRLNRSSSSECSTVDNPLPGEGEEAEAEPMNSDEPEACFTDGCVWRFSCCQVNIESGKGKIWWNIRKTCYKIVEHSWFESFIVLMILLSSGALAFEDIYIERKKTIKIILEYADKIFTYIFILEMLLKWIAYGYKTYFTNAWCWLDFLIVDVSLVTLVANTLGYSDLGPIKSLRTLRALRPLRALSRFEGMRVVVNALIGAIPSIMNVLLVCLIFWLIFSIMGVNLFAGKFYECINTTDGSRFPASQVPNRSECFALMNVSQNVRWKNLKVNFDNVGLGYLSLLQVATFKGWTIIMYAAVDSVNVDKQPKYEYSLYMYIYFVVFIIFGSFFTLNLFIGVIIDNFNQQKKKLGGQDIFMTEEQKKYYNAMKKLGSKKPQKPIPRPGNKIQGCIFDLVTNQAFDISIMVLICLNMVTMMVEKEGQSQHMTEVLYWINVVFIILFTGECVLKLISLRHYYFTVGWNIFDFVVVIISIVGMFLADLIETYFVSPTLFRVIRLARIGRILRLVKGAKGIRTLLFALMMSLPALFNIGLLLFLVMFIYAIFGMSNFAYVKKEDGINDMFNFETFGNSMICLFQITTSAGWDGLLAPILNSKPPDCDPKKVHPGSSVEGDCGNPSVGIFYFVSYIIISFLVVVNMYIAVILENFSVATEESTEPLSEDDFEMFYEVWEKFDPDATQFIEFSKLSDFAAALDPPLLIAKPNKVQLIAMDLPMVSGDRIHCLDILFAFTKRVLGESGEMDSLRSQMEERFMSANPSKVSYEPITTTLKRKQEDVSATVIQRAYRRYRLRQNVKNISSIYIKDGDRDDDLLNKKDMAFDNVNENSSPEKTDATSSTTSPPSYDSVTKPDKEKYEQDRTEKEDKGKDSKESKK
T1 sequence (Q07699 19-218 partner): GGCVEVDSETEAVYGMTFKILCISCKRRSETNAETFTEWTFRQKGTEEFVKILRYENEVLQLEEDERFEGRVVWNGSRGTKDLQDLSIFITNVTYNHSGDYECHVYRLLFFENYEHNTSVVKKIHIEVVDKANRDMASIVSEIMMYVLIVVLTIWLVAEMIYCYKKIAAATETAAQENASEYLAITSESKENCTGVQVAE
Method: Example 5: Tritiated Compound Binding to Membranes Isolated from Cells that Heterologously Express hNav1.7 and the β1 Subunit
Preparation of membranes containing recombinantly expressed sodium channels: Frozen recombinant cell pellets were thawed on ice and diluted to 4 times the cell pellet weight with ice cold 50 mM Tris HCl, pH 7.4 buffer. The cell suspensions were homogenized on ice using a motorized glass dounce homogeniser. Homogenates were further diluted 8.4 times with ice cold 50 mM Tris HCl, pH 7.4 buffer and then centrifuged at 200×g at 4° C. for 15 min. The supernatants were collected and centrifuged at 10000×g at 4° C. for 50 min. The pellets were then re-suspended in 100 mM NaCl, 20 mM Tris HCl, pH 7.4 buffer containing 1% v/v protease inhibitors (Calbiochem) and re-homogenized on ice. The homogenized membranes were then processed through a syringe equipped with a 26 gauge needle. Protein concentrations were determined by Bradford Assay and the membranes were stored at −80° C.
Radioligand Binding Studies:
Saturation experiments. A competitive NaV1.7 inhibitor having a methyl group was tritiated. Three tritiums were incorporated in place of methyl hydrogens to generate [^3H]compound. Binding of this radioligand was performed in 5 mL borosilicate glass test tubes at room temperature. Binding was initiated by adding membranes to increasing concentrations of [^3H]compound in 100 mM NaCl, 20 mM Tris HCl, pH 7.4 buffer containing 0.01% w/v bovine serum albumin (BSA) for 18h. Non-specific binding was determined in the presence of 1 μM unlabeled compound. After 18h, the reactants were filtered through GF/C glass fiber filters presoaked in 0.5% w/v polyethylene imine. Filters were washed with 15 mL ice cold 100 mM NaCl, 20 mM Tris HCl, pH7.4 buffer containing 0.25% BSA to separate bound from free ligand. [^3H]compound bound to filters was quantified by liquid scintillation counting.
Competitive Binding Experiments:
Binding reactions were performed in 96-well polypropylene plates at room temperature for 18h. In 360 μL, membranes were incubated with 100 pM [^3H]compound and increasing concentrations of Test Compound. Non-specific binding was defined in the presence of 1 μM unlabeled compound. Reactions were transferred and filtered through 96-well glass fiber/C filter plates presoaked with 0.5% polyethylene imine. The filtered reactions were washed 5 times with 200 μL ice cold buffer containing 0.25% BSA. Bound radioactivity was determined by liquid scintillation counting.
Data Analysis: For saturation experiments, non-specific binding was subtracted from total binding to provide specific binding and these values were recalculated in terms of pmol ligand bound per mg protein. Saturation curves were constructed and dissociation constants were calculated using the single site ligand binding model: Beq=(Bmax*X)/(X+Kd), where Beq is the amount of ligand bound at equilibrium, Bmax is the maximum receptor density, Kd is the dissociation constant for the ligand, and X is the free ligand concentration. For competition studies percent inhibition was determined and IC50 values were calculated using a 4 parameter logistic model (% inhibition=(A+((B−A)/(1+((x/C)^D)))) using XLfit, where A and B are the maximal and minimum inhibition respectively, C is the IC50 concentration and D is the (Hill) slope.

[1] = In vivo pharmacokinetic experiments (compound clearance in rats); conditions: rat; male rats, IV administration, plasma clearance; read-out: PK (CLp, rat)
Method: Example 6: In Vivo Pharmacokinetic Experiments (Compound Clearance in Rats)
In vivo clearance (CLp) of certain compounds was measured in order to evaluate whether these compounds were likely to be good candidates for development. Male rats were housed at controlled temperature and humidity in an alternating 12 hr light/dark cycle with access to food and water ad libitum. All in vivo studies were performed in accordance with Institutional Animal Care and Use Committee guidelines and in harmony with the Guide for Laboratory Animal Care and Use. Rats were administered IV administration of compound. Plasma was harvested from blood samples that were collected from each animal at various timepoints following the administration of compound. Plasma concentration of compound was determined by mass spectrometer, and pharmacokinetic analysis was performed using non-compartmental method using Phoenix WinNonlin. Following oral administration, percent bioavailability was determined for each animal by dividing the dose-normalized area under the plasma concentration-time curve from time 0 to the last measured concentration (AUC0-tlast) obtained following each oral dose by the mean dose-normalized AUC0-tlast of the animals dosed by IV injection.
CLp values above about 40 mL/min/kg in Example 6 are considered to be highly cleared from the body after administration of a compound to a subject, meaning that the exposure may be insufficient to be treated for a disease or disorder as provided herein.

pIC50 (hNav1.7) | clearance [1] | SMILES
8.96 | > 60 mL/min/kg | O=S(=O)(Nc1ncns1)c1ccc2c(c1)OCC[C@@H]2N1CC[C@@](O)(C(F)(F)F)C[C@H]1c1ccc(F)cc1 [A]
> 9.30 | > 60 mL/min/kg | O=S(=O)(Nc1ncns1)c1cc2c(cc1F)[C@@H](N1CC[C@@H](C(F)(F)F)C[C@H]1c1ccccn1)CCO2 [B]
– | > 60 mL/min/kg | O=S(=O)(Nc1ncns1)c1ccc2c(c1)OCC[C@@H]2N1CC[C@@H](C(F)(F)F)C[C@H]1c1ccc(F)cc1 [C]
– | > 60 mL/min/kg | N#C[C@H]1CCN([C@H]2CCOc3cc(S(=O)(=O)Nc4ncns4)ccc32)C(c2ccc(F)cc2)C1 (stereo partly drawn) [D]
7.96 | – | N#C[C@H]1CCN([C@H]2CCOc3cc(S(=O)(=O)Nc4ncns4)ccc32)[C@@H](c2ccc(F)cc2)C1 [D]
8.59 | > 60 mL/min/kg | O=S(=O)(Nc1ncns1)c1ccc2c(c1)OCC[C@@H]2N1CC[C@H](C(F)F)C[C@@H]1c1ccc(F)cc1 [E]
– | < 30 mL/min/kg | O=S(=O)(Nc1ccncn1)c1cc2c(cc1F)[C@@H](N1CC[C@@H](C(F)(F)F)C[C@H]1c1ccccn1)CCO2 [Example 1, (S)-6-fluoro-4-((2S,4R)-2-(pyridin-2-yl)-4-(trifluoromethyl)piperidin-1-yl)-N-(pyrimidin-4-yl)chroman-7-sulfonamide]
9.30 | < 30 mL/min/kg | O=S(=O)(Nc1ccncn1)c1cc2c(cc1F)[C@@H](N1CC[C@@](O)(C(F)(F)F)C[C@H]1c1ccc(F)cc1)CCO2 [Example 2, (S)-6-fluoro-4-((2S,4S)-2-(4-fluorophenyl)-4-hydroxy-4-(trifluoromethyl)piperidin-1-yl)-N-(pyrimidin-4-yl)chroman-7-sulfonamide]
8.66 | < 30 mL/min/kg | O=S(=O)(Nc1ccncn1)c1cc2c(cc1F)[C@@H](N1CC[C@@H](OC(F)F)C[C@H]1c1ccc(F)cc1)CCO2 [Example 3, (S)-4-((2S,4R)-4-(difluoromethoxy)-2-(4-fluorophenyl)piperidin-1-yl)-6-fluoro-N-(pyrimidin-4-yl)chroman-7-sulfonamide]
8.47 | < 30 mL/min/kg | C[C@@H]1C[C@H](c2cccc(C(F)(F)F)c2)CCN1[C@H]1CCOc2cc(S(=O)(=O)Nc3ccncn3)c(F)cc21 [Example 4, (S)-6-fluoro-4-((2R,4R)-2-methyl-4-(3-(trifluoromethyl)phenyl)piperidin-1-yl)-N-(pyrimidin-4-yl)chroman-7-sulfonamide]
8.06 | > 60 mL/min/kg | CS(=O)(=O)[C@@H]1CCN([C@H]2CCOc3cc(S(=O)(=O)Nc4ncns4)ccc32)[C@H](c2ccc(F)cc2)C1 [F]
